Test results reported in ChEMBL document CHEMBL3745622 (Bioorg Med Chem, 2016).

Key:
Tyrosinase [1] = target: T1, Tyrosinase (Agaricus bisporus, UniProt O42713)
T1 sequence (O42713 whole entry): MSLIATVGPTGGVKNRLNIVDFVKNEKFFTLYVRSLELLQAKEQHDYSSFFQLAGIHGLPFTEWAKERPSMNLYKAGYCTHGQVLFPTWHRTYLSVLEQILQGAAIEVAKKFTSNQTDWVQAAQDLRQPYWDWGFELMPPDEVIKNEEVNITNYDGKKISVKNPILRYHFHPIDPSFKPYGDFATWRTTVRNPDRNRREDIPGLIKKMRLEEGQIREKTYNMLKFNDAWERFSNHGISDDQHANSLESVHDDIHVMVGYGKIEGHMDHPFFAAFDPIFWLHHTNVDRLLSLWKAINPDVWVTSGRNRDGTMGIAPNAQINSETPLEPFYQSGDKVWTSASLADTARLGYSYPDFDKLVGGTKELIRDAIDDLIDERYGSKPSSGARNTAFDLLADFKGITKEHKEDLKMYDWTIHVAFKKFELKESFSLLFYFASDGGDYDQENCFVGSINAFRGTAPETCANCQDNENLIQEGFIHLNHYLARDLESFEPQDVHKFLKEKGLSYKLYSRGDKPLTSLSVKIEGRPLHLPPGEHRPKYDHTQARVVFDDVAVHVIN
Description: (§1) Inhibition of monophenolase activity of mushroom tyrosinase using L-tyrosine as substrate preincubated with substrate for 10 mins followed by protein addition measured after 15 mins by spectrophotometric analysis

Tyrosinase [2] = target: T1, Tyrosinase; remark: listed apart in the source
Description: (§2) Inhibition of diphenolase activity of mushroom tyrosinase using L-DOPA as substrate preincubated with substrate for 10 mins followed by protein addition measured after 15 mins by spectrophotometric analysis

Tyrosinase [3] = target: T1, Tyrosinase; remark: listed apart in the source
Tyrosinase [4] = target: T1, Tyrosinase; remark: listed apart in the source
Description: Competitive inhibition of diphenolase activity of mushroom tyrosinase using L-DOPA as substrate preincubated for 5 to 60 mins by Lineweaver-Burk and Dixon plot analysis

[5] = target: T2, Tyrosinase (Agaricus bisporus) (UniProt O42713)
T2 sequence (whole entry): T1 sequence (O42713 whole entry)
Description: as §2

[6] = target: T2, Tyrosinase (Agaricus bisporus); remark: listed apart in the source
Description: as §1

Tyrosinase [7] = target: T1, Tyrosinase; assay: Time dependent inhibition of monophenolase activity of mushroom tyrosinase using L-tyrosine as substrate measured every 30 secs by Morrison and Walsh plot analysis; conditions: read-out: Ki(app)
B16 [8] = assay: Potency index, ratio of kojic acid IC50 to compound IC50 for alpha-MSH-stimulated melanin production in mouse B16 cells; format: functional
B16 [9] = assay: cells; conditions: Mus musculus, B16, 72 h
Description: Inhibition of alpha-MSH-stimulated melanin production in mouse B16 cells after 72 hrs by microplate reader analysis

in vitro = conditions: mouse, B16 cells
Description: Cytotoxicity against mouse B16 cells assessed as cell viability after 72 hrs by MTT assay

Compound | IC50 (Tyrosinase [1]) | IC50 (Tyrosinase [2]) | Ki (Tyrosinase [3]) | Ki (Tyrosinase [4]) | inhibition [5] | inhibition [6] | Ki (Tyrosinase [7]) | Ratio IC50 (B16 [8]) | IC50 (B16 [9]) | CC50 at 72 h (in vitro)
COc1c(C2COc3cc(O)c(CC=C(C)C)c(O)c3C2=O)ccc(O)c1CC=C(C)C (stereo unspecified) | > 200 µM | > 200 µM |  |  |  |  |  |  |  | 
C/C(=C\Cc1ccc(-c2coc3cc(O)cc(O)c3c2=O)cc1O)CCCC(C)(C)O | > 200 µM | > 200 µM |  |  |  |  |  |  |  | 
COc1c2c(cc3c1C[C@H](c1ccc(O)cc1O)CO3)OC(C)(C)C=C2 | 0.03 µM | 0.5 µM | 0.019 µM | 0.13 µM | Dose-dependent effect | Dose-dependent effect | 0.00148 µM | 200 | 13 µM | 104 µM
CC(C)=CCC/C(C)=C/COc1ccc(-c2coc3cc(O)cc(O)c3c2=O)cc1O | > 200 µM | > 200 µM |  |  |  |  |  |  |  | 
CC(C)=CCc1c(O)ccc(C2COc3cc(O)c(CC=C(C)C)c(O)c3C2=O)c1O (stereo unspecified) | > 200 µM | > 200 µM |  |  |  |  |  |  |  | 
CC(C)=CCC/C(C)=C/Cc1cc(C2Oc3cc(O)c(C)c(O)c3C(=O)C2=O)ccc1O (stereo unspecified) | > 200 µM | > 200 µM |  |  |  |  |  |  |  | 
CC(C)=CCC/C(C)=C/Cc1c(O)ccc(C2COc3cc(O)cc(O)c3C2=O)c1O (stereo unspecified) | 2.9 µM | 128 µM | 1.8 µM | 76.4 µM | Dose-dependent effect | Dose-dependent effect | 0.151 µM |  | 42.3 µM | 241 µM
COc1cc(O)ccc1C1COc2cc3c(c(O)c2C1=O)C=CC(C)(C)O3 (stereo unspecified) | > 200 µM | 146 µM |  | 56.7 µM |  |  |  |  |  | 
CC(C)=CCCCC1(C)C=Cc2cc(-c3coc4cc(O)cc(O)c4c3=O)ccc2O1 (stereo unspecified) | > 200 µM | > 200 µM |  |  |  |  |  |  |  | 

Second part, led by results:

IC50 (Tyrosinase [1]) | IC50 (Tyrosinase [2]) | Compound | Ki (Tyrosinase [3]) | Ki (Tyrosinase [4]) | inhibition [5] | inhibition [6] | Ki (Tyrosinase [7]) | Ratio IC50 (B16 [8]) | IC50 (B16 [9]) | CC50 at 72 h (in vitro)
> 200 µM | > 200 µM | COc1cc(C2COc3cc4c(c(OC)c3C2)C=CC(C)(C)O4)c(O)cc1O (stereo unspecified) |  |  |  |  |  |  |  | 
> 200 µM | > 200 µM | CC(C)=CCC/C(C)=C/Cc1cc(C2CC(=O)c3c(cc(O)c(C)c3O)O2)ccc1O (stereo unspecified) |  |  |  |  |  |  |  | 
> 200 µM | > 200 µM | CC(C)=CCC/C(C)=C/Cc1cc(-c2coc3cc(O)cc(O)c3c2=O)ccc1O |  |  |  |  |  |  |  | 
18.4 µM | 144 µM | CC(C)=CCC/C(C)=C/Cc1c(O)ccc(C2(O)COc3cc(O)cc(O)c3C2=O)c1O (stereo unspecified) | 7.5 µM | 81.4 µM | Dose-dependent effect | Dose-dependent effect |  |  |  | 
92 µM | > 200 µM | CC(C)=CCC/C(C)=C/Cc1c(O)ccc(-c2coc3cc(O)cc(O)c3c2=O)c1O | 49.7 µM |  | Dose-dependent effect | Dose-dependent effect |  |  |  | 
